According to ChEMBL document CHEMBL1153780, “Synthesis and antibacterial activity of some new thiazole and thiophene derivatives” (2009):
≈ marks a conversion by molar mass, not a printed value.

How the values were obtained:
Assay type in all cases: functional
Bacillus thuringiensis [1] = assay: Antibacterial activity against Bacillus thuringiensis at 2 mg/ml by agar diffusion method; conditions: read-out: DIZ
Bacillus thuringiensis [2] = assay: Antibacterial activity against Bacillus thuringiensis by twofold serial broth dilution method
Escherichia coli [3] = assay: Antibacterial activity against Escherichia coli at 2 mg/ml by agar diffusion method; conditions: read-out: DIZ
Escherichia coli [4] = assay: Antibacterial activity against Escherichia coli by twofold serial broth dilution method

Structure (SMILES) | MIC (Bacillus thuringiensis [2]) [mg/L] | MIC (Escherichia coli [4]) [mg/L] | zone of inhibition at 2000 µg/mL (Bacillus thuringiensis [1]) [mm] | zone of inhibition at 2000 µg/mL (Escherichia coli [3]) [mm]
Cc1csc(N2NC(=O)C3C4c5ccccc5C(c5ccccc54)C3C2=O)n1 (stereo unspecified) | 6 (≈ 15.5 µM) | 50 (≈ 129 µM) | 40 | 16
N#C/C(C(=O)N1NC(=O)C2C3c4ccccc4C(c4ccccc43)C2C1=O)=c1\sc(=O)/c(=C2\C(=O)Nc3ccccc32)n1-c1ccccc1 (stereo unspecified) | – | – | 15 | 15
CC(=O)c1sc(Nc2ccccc2)c(C(=O)N2NC(=O)C3C4c5ccccc5C(c5ccccc54)C3C2=O)c1N (stereo unspecified) | – | – | 15 | 13
COc1ccc(/C=c2\c(=O)s/c(=C(\C#N)C(=O)N3NC(=O)C4C5c6ccccc6C(c6ccccc65)C4C3=O)n2-c2ccccc2)cc1 (stereo unspecified) | – | – | 11 | 13
N#C/C(C(=O)N1NC(=O)C2C3c4ccccc4C(c4ccccc43)C2C1=O)=C(\S)Nc1ccccc1 (stereo unspecified) | 12.5 (≈ 25.4 µM) | 12.5 (≈ 25.4 µM) | 22 | 22
O=C(N[C@H](CO)[C@H](O)c1ccc([N+](=O)[O-])cc1)C(Cl)Cl [CHLORAMPHENICOL] | 12.5 (≈ 38.7 µM) | 12.5 (≈ 38.7 µM) | 23 | 19
O=C1CSC(N2NC(=O)C3C4c5ccccc5C(c5ccccc54)C3C2=O)=N1 (stereo unspecified) | 12.5 (≈ 32.1 µM) | 12.5 (≈ 32.1 µM) | 24 | 26
O=C1NN(c2nc(-c3ccccc3)c(Br)s2)C(=O)C2C3c4ccccc4C(c4ccccc43)C12 (stereo unspecified) | – | – | – | 12
O=C1NN(c2nc(-c3ccccc3)cs2)C(=O)C2C3c4ccccc4C(c4ccccc43)C12 (stereo unspecified) | 12.5 (≈ 27.8 µM) | 50 (≈ 111 µM) | 23 | 15
N#C/C(C(=O)N1NC(=O)C2C3c4ccccc4C(c4ccccc43)C2C1=O)=C1\SCCN1c1ccccc1 (stereo unspecified) | 12.5 (≈ 24.1 µM) | 50 (≈ 96.4 µM) | 22 | 15
N#C/C(C(=O)N1NC(=O)C2C3c4ccccc4C(c4ccccc43)C2C1=O)=C1\SC(=O)CN1c1ccccc1 (stereo unspecified) | – | – | 17 | 18
N#C/C(C(=O)N1NC(=O)C2C3c4ccccc4C(c4ccccc43)C2C1=O)=c1\sc(=O)c(=C2C(=O)c3ccccc3C2=O)n1-c1ccccc1 (stereo unspecified) | 50 (≈ 74.1 µM) | 12.5 (≈ 18.5 µM) | 19 | 25
CN(C)/C=N/N1C(=O)C2C3c4ccccc4C(c4ccccc43)C2C1=O (stereo unspecified) | 50 (≈ 145 µM) | 12.5 (≈ 36.2 µM) | 20 | 21

The remaining molecules from weak to strong by MIC (Escherichia coli [4]), led by results:

MIC (Bacillus thuringiensis [2]) [mg/L] | MIC (Escherichia coli [4]) [mg/L] | Structure (SMILES) | zone of inhibition at 2000 µg/mL (Bacillus thuringiensis [1]) [mm] | zone of inhibition at 2000 µg/mL (Escherichia coli [3]) [mm]
12.5 (≈ 23.6 µM) | 12.5 (≈ 23.6 µM) | CC1=CS/C(=C(\C#N)C(=O)N2NC(=O)C3C4c5ccccc5C(c5ccccc54)C3C2=O)N1c1ccccc1 (stereo unspecified) | 28 | 30
50 (≈ 93.9 µM) | 12.5 (≈ 23.5 µM) | N#C/C(C(=O)N1NC(=O)C2C3c4ccccc4C(c4ccccc43)C2C1=O)=C1\SCCCN1c1ccccc1 (stereo unspecified) | 19 | 25
12.5 (≈ 23.5 µM) | 12.5 (≈ 23.5 µM) | N#C/C(C(=O)N1NC(=O)C2C3c4ccccc4C(c4ccccc43)C2C1=O)=C1\SCC(=O)N1c1ccccc1 (stereo unspecified) | 24 | 26
50 (≈ 81.9 µM) | 12.5 (≈ 20.5 µM) | Nc1c(C(=O)c2ccccc2)sc(Nc2ccccc2)c1C(=O)N1NC(=O)C2C3c4ccccc4C(c4ccccc43)C2C1=O (stereo unspecified) | 17 | 20
12.5 (≈ 35.8 µM) | 12.5 (≈ 35.8 µM) | CC1(C)S[C@@H]2[C@H](NC(=O)[C@H](N)c3ccccc3)C(=O)N2[C@H]1C(=O)O [AMPICILLIN] | 18 | 19
6 (≈ 12.2 µM) | 12.5 (≈ 25.5 µM) | N#C/C(C(=O)N1NC(=O)C2C3c4ccccc4C(c4ccccc43)C2C1=O)=C1/Nc2ccccc2S1 (stereo unspecified) | 30 | 26
– | 12.5 (≈ 23.5 µM) | N#Cc1sc(Nc2ccccc2)c(C(=O)N2NC(=O)C3C4c5ccccc5C(c5ccccc54)C3C2=O)c1N (stereo unspecified) | – | 20
6 (≈ 10.1 µM) | 6 (≈ 10.1 µM) | N#C/C(C(=O)N1NC(=O)C2C3c4ccccc4C(c4ccccc43)C2C1=O)=C1\SC=C(c2ccccc2)N1c1ccccc1 (stereo unspecified) | 39 | 40
